{"source": "EPA's ToxValDB 9.5 (doi:10.2903/j.efsa.2014.3812)", "key": {"Daphnia magna": {"tested_on": "Daphnia magna", "conditions": "chronic/long-term; duration: 21 days; reproduction"}, "Hypoaspis aculeifer": {"tested_on": "Hypoaspis aculeifer", "conditions": "chronic/long-term"}, "Apis mellifera": {"tested_on": "Apis mellifera", "conditions": "acute, mortality"}, "Folsomia candida": {"tested_on": "Folsomia candida", "conditions": "chronic/long-term"}, "Typhlodromus pyri": {"tested_on": "Typhlodromus pyri", "experiment": "LR50; higher = less toxic", "conditions": "not reported; mortality"}}, "data": [{"smiles": "O=C(O)COc1ccc(Cl)cc1Cl", "note": "[2,4-Dichlorophenoxyacetic acid]", "values": [{"measurement": "NOEC", "setting": "Daphnia magna", "result": 38.4, "unit": "mg/L"}, {"measurement": "LD50", "setting": "Colinus virginianus; acute, oral", "result": 500, "unit": "mg/kg-day"}, {"measurement": "NOAEL", "setting": "Colinus virginianus; reproduction developmental", "result": 100, "unit": "mg/kg-day"}, {"measurement": "LD50", "setting": "Rattus norvegicus; acute", "result": 486, "unit": "mg/kg-day"}, {"measurement": "NOAEL", "setting": "Rattus norvegicus; acute, clinical signs", "result": 75, "unit": "mg/kg-day"}, {"measurement": "NOAEL", "setting": "Rattus norvegicus; chronic", "result": 20.6, "unit": "mg/kg-day"}, {"measurement": "NOAEL", "setting": "Rattus norvegicus; chronic, duration: 2 years, organ weight", "result": 5, "unit": "mg/kg-day"}, {"measurement": "NOAEL", "setting": "Rattus norvegicus; subchronic, duration: 90 days, oral, histopathology: nonneoplastic", "result": 15, "unit": "mg/kg-day"}, {"measurement": "NOEC", "setting": "Hypoaspis aculeifer", "result": 5, "unit": "mg/kg"}, {"measurement": "LC50", "setting": "Tagia sp.; acute, duration: 14 days, mortality", "result": 350, "unit": "mg/kg"}, {"measurement": "NOEC", "setting": "Tagia sp.; chronic/long-term, duration: 8 weeks", "result": 62.5, "unit": "mg/kg"}, {"measurement": "LC50", "setting": "Pimephales promelas; acute, duration: 96 hours, mortality", "result": 100, "unit": "µg/mL"}, {"measurement": "NOEC", "setting": "Pimephales promelas; chronic/long-term, duration: 32 days, growth", "result": 63.4, "unit": "mg/L"}, {"measurement": "LD50", "setting": "Apis mellifera; dermal", "result": "> 100", "unit": "µg/piece"}, {"measurement": "LD50", "setting": "Apis mellifera; oral, unspecified", "result": 94, "unit": "µg/piece"}, {"measurement": "NOEC", "setting": "Folsomia candida", "result": 1.25, "unit": "mg/kg"}, {"measurement": "LR50", "setting": "Typhlodromus pyri", "result": "> 3000", "unit": "g/ha"}]}]}
